# Starred links: 1 amine or outer side, 2 acyl side, 3 side chain; linkers in the order of their positions; H or OH if unused. Positions of bridges follow the written chain, without caps; N, C: chain ends. Non-standard residues stand in square brackets, D forms with d. Residues, ends and D or L forms follow the SMILES beside them. *: point of attachment. C18 diacid = O=C(O)CCCCCCCCCCCCCCCCC(=O)*; γGlu = O=C(O)[C@H](CCC(=O)[*:2])N[*:1]; AEEA = NCCOCCOCC(=O)O
# Biological target: T1, human natriuretic peptide receptor 2 (hNPR2) (Homo sapiens, UniProt P20594)
# T1 construct: expressed in transfected cells; host or cells: HEK293 (ATCC CRL-1573), clone 35, co-transfected with pGloSensor-42F
# T1 sequence (P20594 23-1047): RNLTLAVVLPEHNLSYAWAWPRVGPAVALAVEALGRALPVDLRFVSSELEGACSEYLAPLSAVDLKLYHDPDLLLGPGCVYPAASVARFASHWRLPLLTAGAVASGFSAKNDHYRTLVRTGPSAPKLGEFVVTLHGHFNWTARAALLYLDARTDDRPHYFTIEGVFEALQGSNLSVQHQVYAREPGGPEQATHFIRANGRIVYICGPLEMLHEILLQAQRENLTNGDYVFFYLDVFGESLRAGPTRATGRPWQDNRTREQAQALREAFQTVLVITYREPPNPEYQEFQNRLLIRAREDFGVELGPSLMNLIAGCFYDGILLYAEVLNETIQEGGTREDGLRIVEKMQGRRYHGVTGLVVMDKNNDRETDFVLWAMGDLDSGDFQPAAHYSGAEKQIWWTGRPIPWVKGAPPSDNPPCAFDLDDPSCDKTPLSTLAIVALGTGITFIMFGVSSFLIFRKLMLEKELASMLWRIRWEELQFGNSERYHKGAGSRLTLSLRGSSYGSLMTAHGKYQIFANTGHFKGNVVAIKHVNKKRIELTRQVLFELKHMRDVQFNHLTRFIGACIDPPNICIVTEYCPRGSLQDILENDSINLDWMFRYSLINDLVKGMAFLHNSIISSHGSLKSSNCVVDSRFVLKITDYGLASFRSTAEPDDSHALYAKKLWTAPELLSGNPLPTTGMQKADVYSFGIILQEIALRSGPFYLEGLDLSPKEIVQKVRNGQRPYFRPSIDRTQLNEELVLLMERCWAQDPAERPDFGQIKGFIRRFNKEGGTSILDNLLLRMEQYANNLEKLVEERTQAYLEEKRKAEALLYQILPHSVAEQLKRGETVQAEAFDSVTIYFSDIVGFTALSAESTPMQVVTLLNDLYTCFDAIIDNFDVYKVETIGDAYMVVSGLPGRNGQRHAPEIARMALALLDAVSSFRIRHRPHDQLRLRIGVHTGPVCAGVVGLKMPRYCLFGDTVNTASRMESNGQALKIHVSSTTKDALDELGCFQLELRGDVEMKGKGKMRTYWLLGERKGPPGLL
# Assay: In vitro hNPR2 activity assay (cGMP GloSensor reporter, HEK293)
# Type: cell-based
# Conditions: 0% HSA; HEK293-hNPR2/GloSensor cells
# Method in brief: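 Potency is the EC50 from a four-parameter logistic fit, also expressed relative to the in-plate CNP22 control (×100), with at least two replicates. Compounds (ten concentrations, […], HSA-free diluent with 1% OVA, 0.01% Tween20) were incubated 30 min at 37 °C on HEK293 cells co-expressing hNPR2 and a GloSensor cGMP luciferase. Luminescence detected with Bright-Glo.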
row,SMILES,EC50
1,CC[C@H](C)[C@@H]1NC(=O)[C@H](CCCNC(=N)N)NC(=O)[C@H](CCC(=O)O)NC(=O)[C@H](CC(C)C)NC(=O)[C@@H]2CCCN2C(=O)[C@H](CC(C)C)NC(=O)CNC(=O)[C@H](Cc2ccccc2)NC(=O)[C@@H](NC(=O)CNC(=O)[C@H](CCC(N)=O)NC(=O)[C@H](CO)NC(=O)[C@H](CO)NC(=O)CNC(=O)[C@H](CCCCN)NC(=O)[C@H](CCCCN)NC(=O)[C@H](CCC(N)=O)NC(=O)[C@H](C)NC(=O)CNC(=O)[C@@H]2CCCN2C(=O)[C@H](C)NC(=O)[C@H](CCC(N)=O)NC(=O)CNC(=O)COCCOCCNC(=O)COCCOCCNC(=O)CC[C@H](NC(=O)CCCCCCCCCCCCCCCCC(=O)O)C(=O)O)CSSC[C@@H](C(=O)O)NC(=O)CNC(=O)[C@H](CC(C)C)NC(=O)CNC(=O)[C@H](CO)NC(=O)[C@H](CC(C)C)NC(=O)[C@H](CO)NC(=O)CNC1=O [compound 1486] ({C18 diacid-γGlu-AEEA-AEEA}-GQAPGAQKKGSSQGCFGLPLERIGSLSGLGC-OH; disulfide 15-31; C-terminus assumed),0.14 nM

# Same assay, conditions: potency relative to CNP22 (0065)
row,SMILES,hNPR2 0% HSA. [EC50% rel CNP]
1,CC[C@H](C)[C@@H]1NC(=O)[C@H](CCCNC(=N)N)NC(=O)[C@H](CC(=O)O)NC(=O)[C@H](CC(C)C)NC(=O)[C@@H]2CCCN2C(=O)[C@H](CC(C)C)NC(=O)CNC(=O)[C@H](Cc2ccccc2)NC(=O)[C@@H](NC(=O)CNC(=O)[C@H](CCC(N)=O)NC(=O)[C@H](CO)NC(=O)[C@H](CC(C)C)NC(=O)CNC(=O)[C@H](CCCCN)NC(=O)[C@H](CCCCN)NC(=O)[C@H](CCC(N)=O)NC(=O)[C@H](C)NC(=O)CNC(=O)[C@H](CCCCN)NC(=O)[C@H](Cc2ccc(O)cc2)NC(=O)[C@H](CCCCN)NC(=O)[C@H](CCCNC(=N)N)NC(=O)[C@H](C)NC(=O)COCCOCCNC(=O)COCCOCCNC(=O)COCCOCCNC(=O)COCCOCCNC(=O)CC[C@H](NC(=O)CC[C@H](NC(=O)CC[C@H](NC(=O)CC[C@H](NC(=O)CC[C@H](NC(=O)CCCCCCCCCCCCCCCCC(=O)O)C(=O)O)C(=O)O)C(=O)O)C(=O)O)C(=O)O)CSSC[C@@H](C(=O)O)NC(=O)CNC(=O)[C@H](CC(C)C)NC(=O)CNC(=O)[C@H](CO)NC(=O)[C@H](CCSC)NC(=O)[C@H](CO)NC(=O)CNC1=O [compound 1465] ({C18 diacid-γGlu-γGlu-γGlu-γGlu-γGlu-AEEA-AEEA-AEEA-AEEA}-ARKYKGAQKKGLSQGCFGLPLDRIGSMSGLGC-OH; disulfide 16-32),24.0%
2,CC[C@H](C)[C@@H]1NC(=O)[C@H](CCCNC(=N)N)NC(=O)[C@H](CC(=O)O)NC(=O)[C@H](CC(C)C)NC(=O)[C@@H]2CCCN2C(=O)[C@H](CC(C)C)NC(=O)CNC(=O)[C@H](Cc2ccccc2)NC(=O)[C@@H](NC(=O)CNC(=O)[C@H](CCC(N)=O)NC(=O)[C@H](CO)NC(=O)[C@H](CC(C)C)NC(=O)CNC(=O)[C@H](CCCCN)NC(=O)[C@H](CCCCN)NC(=O)[C@H](CCC(N)=O)NC(=O)[C@H](C)NC(=O)CNC(=O)[C@H](CCCCN)NC(=O)[C@H](Cc2ccc(O)cc2)NC(=O)[C@H](CCCCN)NC(=O)[C@H](CCCNC(=N)N)NC(=O)[C@H](C)NC(=O)[C@H](CCC(N)=O)NC(=O)[C@@H]2CCCN2C(=O)[C@H](Cc2c[nH]cn2)NC(=O)[C@H](CCC(=O)O)NC(=O)[C@H](CCC(N)=O)NC(=O)COCCOCCNC(=O)COCCOCCNC(=O)CC[C@H](NC(=O)CC[C@H](NC(=O)CC[C@H](NC(=O)CC[C@H](NC(=O)CC[C@H](NC(=O)CCCCCCCCCCCCCCCCC(=O)O)C(=O)O)C(=O)O)C(=O)O)C(=O)O)C(=O)O)CSSC[C@@H](C(=O)O)NC(=O)CNC(=O)[C@H](CC(C)C)NC(=O)CNC(=O)[C@H](CO)NC(=O)[C@H](CC(C)C)NC(=O)[C@H](CO)NC(=O)CNC1=O [compound 1471] ({C18 diacid-γGlu-γGlu-γGlu-γGlu-γGlu-AEEA-AEEA}-QEHPQARKYKGAQKKGLSQGCFGLPLDRIGSLSGLGC-OH; disulfide 21-37),40.2%
3,CC[C@H](C)[C@@H]1NC(=O)[C@H](CCCNC(=N)N)NC(=O)[C@H](CC(=O)O)NC(=O)[C@H](CC(C)C)NC(=O)[C@@H]2CCCN2C(=O)[C@H](CC(C)C)NC(=O)CNC(=O)[C@H](Cc2ccccc2)NC(=O)[C@@H](NC(=O)CNC(=O)[C@H](CCC(N)=O)NC(=O)[C@H](CO)NC(=O)[C@H](CC(C)C)NC(=O)CNC(=O)[C@H](CCCCN)NC(=O)[C@H](CCCCN)NC(=O)[C@H](CCC(N)=O)NC(=O)[C@H](C)NC(=O)CNC(=O)[C@H](CCCCN)NC(=O)[C@H](Cc2ccc(O)cc2)NC(=O)[C@H](CCCCN)NC(=O)[C@H](CCCNC(=N)N)NC(=O)[C@H](C)NC(=O)[C@H](CCC(N)=O)NC(=O)[C@@H]2CCCN2C(=O)[C@H](Cc2c[nH]cn2)NC(=O)[C@H](CCC(=O)O)NC(=O)[C@H](CCC(N)=O)NC(=O)COCCOCCNC(=O)COCCOCCNC(=O)CC[C@H](NC(=O)CC[C@H](NC(=O)CC[C@H](NC(=O)CC[C@H](NC(=O)CCCCCCCCCCCCCCCCC(=O)O)C(=O)O)C(=O)O)C(=O)O)C(=O)O)CSSC[C@@H](C(=O)O)NC(=O)CNC(=O)[C@H](CC(C)C)NC(=O)CNC(=O)[C@H](CO)NC(=O)[C@H](CC(C)C)NC(=O)[C@H](CO)NC(=O)CNC1=O [compound 1472] ({C18 diacid-γGlu-γGlu-γGlu-γGlu-AEEA-AEEA}-QEHPQARKYKGAQKKGLSQGCFGLPLDRIGSLSGLGC-OH; disulfide 21-37; C-terminus assumed),52.0%
4,CC[C@H](C)[C@@H]1NC(=O)[C@H](CCCNC(=N)N)NC(=O)[C@H](CC(=O)O)NC(=O)[C@H](CC(C)C)NC(=O)[C@@H]2CCCN2C(=O)[C@H](CC(C)C)NC(=O)CNC(=O)[C@H](Cc2ccccc2)NC(=O)[C@@H](NC(=O)CNC(=O)[C@H](CCC(N)=O)NC(=O)[C@H](CO)NC(=O)[C@H](CC(C)C)NC(=O)CNC(=O)[C@H](CCCCN)NC(=O)[C@H](CCCCN)NC(=O)[C@H](CCC(N)=O)NC(=O)[C@H](C)NC(=O)CNC(=O)[C@H](CCCCN)NC(=O)[C@H](Cc2ccc(O)cc2)NC(=O)COCCOCCNC(=O)COCCOCCNC(=O)COCCOCCNC(=O)COCCOCCNC(=O)[C@H](CCC(=O)O)NC(=O)[C@H](CCC(=O)O)NC(=O)[C@H](CCC(=O)O)NC(=O)CCCCCCCCCCCCCCCCC(=O)O)CSSC[C@@H](C(=O)O)NC(=O)CNC(=O)[C@H](CC(C)C)NC(=O)CNC(=O)[C@H](CO)NC(=O)[C@H](CC(C)C)NC(=O)[C@H](CO)NC(=O)CNC1=O [compound 1481] ({C18 diacid}-EEE[AEEA][AEEA][AEEA][AEEA]YKGAQKKGLSQGCFGLPLDRIGSLSGLGC-OH; disulfide 20-36),35.1%
5,CC[C@H](C)[C@@H]1NC(=O)[C@H](CCCNC(=N)N)NC(=O)[C@H](CCC(=O)O)NC(=O)[C@H](CC(C)C)NC(=O)[C@@H]2CCCN2C(=O)[C@H](CC(C)C)NC(=O)CNC(=O)[C@H](Cc2ccccc2)NC(=O)[C@@H](NC(=O)CNC(=O)[C@H](CCC(N)=O)NC(=O)[C@H](CO)NC(=O)[C@H](CO)NC(=O)CNC(=O)[C@H](CCCCN)NC(=O)[C@H](CCCCN)NC(=O)[C@H](CCC(N)=O)NC(=O)[C@H](C)NC(=O)CNC(=O)[C@@H]2CCCN2C(=O)[C@H](C)NC(=O)[C@H](CCC(N)=O)NC(=O)CNC(=O)COCCOCCNC(=O)COCCOCCNC(=O)CC[C@H](NC(=O)CCCCCCCCCCCCCCCCC(=O)O)C(=O)O)CSSC[C@@H](C(=O)O)NC(=O)CNC(=O)[C@H](CC(C)C)NC(=O)CNC(=O)[C@H](CO)NC(=O)[C@H](CC(C)C)NC(=O)[C@H](CO)NC(=O)CNC1=O [compound 1486] ({C18 diacid-γGlu-AEEA-AEEA}-GQAPGAQKKGSSQGCFGLPLERIGSLSGLGC-OH; disulfide 15-31; C-terminus assumed),6.0%
6,CC[C@H](C)[C@@H]1NC(=O)[C@H](CCCNC(=N)N)NC(=O)[C@H](CC(=O)O)NC(=O)[C@H](CC(C)C)NC(=O)[C@@H]2CCCN2C(=O)[C@H](CC(C)C)NC(=O)CNC(=O)[C@H](Cc2ccccc2)NC(=O)[C@@H](NC(=O)CNC(=O)[C@H](CCC(N)=O)NC(=O)[C@H](CO)NC(=O)[C@H](CC(C)C)NC(=O)CNC(=O)[C@H](CCCCN)NC(=O)[C@H](CCCCN)NC(=O)[C@H](CCC(N)=O)NC(=O)[C@H](C)NC(=O)CNC(=O)[C@@H]2CCCN2C(=O)[C@H](C)NC(=O)[C@H](CCC(N)=O)NC(=O)CNC(=O)[C@@H]2CCCN2C(=O)[C@H](C)NC(=O)[C@H](CCC(N)=O)NC(=O)CNC(=O)[C@@H]2CCCN2C(=O)[C@H](C)NC(=O)[C@H](CCC(N)=O)NC(=O)CNC(=O)COCCOCCNC(=O)COCCOCCNC(=O)CC[C@H](NC(=O)CCCCCCCCCCCCCCCCC(=O)O)C(=O)O)CSSC[C@@H](C(=O)O)NC(=O)CNC(=O)[C@H](CC(C)C)NC(=O)CNC(=O)[C@H](CO)NC(=O)[C@H](CC(C)C)NC(=O)[C@H](CO)NC(=O)CNC1=O [compound 1487] ({C18 diacid-γGlu-AEEA-AEEA}-GQAPGQAPGQAPGAQKKGLSQGCFGLPLDRIGSLSGLGC-OH; disulfide 23-39),22.0%
